From ChEMBL document CHEMBL1144118, “New antimycobacterial saponin from Colubrina retusa” (1999)
Values after ≈ are worked out from the molar mass of the structure shown. Active and inactive are the calls of the source. The calls are words filed in the database; no cut-off is given here.

System: Mycobacterium intracellulare
Assay: Antimycobacterial activity against Mycobacterium intracellular ATCC 23068 after 48 hrs
Assay type: functional
Conditions: for MIC: ATCC 23068, 48 h

| MIC | Structure (SMILES) | Activity |
| --- | --- | --- |
|  | CC(C)=C[C@H]1C[C@](C)(O)[C@@H]2[C@H]3CC[C@@H]4[C@@]5(C)CC[C@H](O[C@@H]6OC[C@H](O)[C@H](O[C@@H]7O[C@H](CO)[C@@H](O)[C@H](O)[C@H]7O)[C@H]6O[C@@H]6O[C@@H](CO)[C@H](O)[C@H]6O)C(C)(C)[C@@H]5CC[C@@]4(C)[C@@]34CO[C@@]2(C4)O1 | inactive |
| 50 µg/mL (≈ 47.8 µM) | CC(C)=C[C@H]1C[C@](C)(O)[C@@H]2[C@H]3CC[C@@H]4[C@@]5(C)CC[C@H](O[C@@H]6OC[C@H](O)[C@H](O[C@@H]7O[C@H](CO)[C@@H](O)[C@H](O)[C@H]7OC(=O)/C=C/c7ccc(O)cc7)[C@H]6O[C@@H]6O[C@@H](CO)[C@H](O)[C@H]6O)C(C)(C)[C@@H]5CC[C@@]4(C)[C@@]34CO[C@@]2(C4)O1 |  |
| 10 µg/mL (≈ 9.57 µM) | CC(C)=C[C@H]1C[C@](C)(O)[C@@H]2[C@H]3CC[C@@H]4[C@@]5(C)CC[C@H](O[C@@H]6OC[C@H](O)[C@H](O[C@@H]7O[C@H](CO)[C@@H](O)[C@H](OC(=O)/C=C/c8ccc(O)cc8)[C@H]7O)[C@H]6O[C@@H]6O[C@@H](CO)[C@H](O)[C@H]6O)C(C)(C)[C@@H]5CC[C@@]4(C)[C@@]34CO[C@@]2(C4)O1 |  |
| 0.3 µg/mL (≈ 0.365 µM) | CO[C@H]1/C=C/O[C@@]2(C)Oc3c(C)c(O)c4c(O)c(c(/C=N/N5CCN(C)CC5)c(O)c4c3C2=O)NC(=O)/C(C)=C\C=C\[C@H](C)[C@H](O)[C@@H](C)[C@@H](O)[C@@H](C)[C@H](OC(C)=O)[C@@H]1C [RIFAMPIN] |  |
